Results published in the supplement of paper PMC10307832.

How the values were obtained:
Assay in all cases: relative viability (nuclei count vs DMSO), 5 days (fraction); higher = more cells survive
Ispinesib + Vorinostat = compound: Cc1ccc(C(=O)N(CCCN)[C@@H](c2nc3cc(Cl)ccc3c(=O)n2Cc2ccccc2)C(C)C)cc1 [Ispinesib] + O=C(CCCCCCC(=O)Nc1ccccc1)NO [Vorinostat] (partner 1 µM)
In short: (§1)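 Relative viability divides the nuclei count in treated wells by that in vehicle wells. Lung cancer cell lines were seeded in 1536-well plates, dosed by pin tool the next day, and fixed and stained after 5 days in one step with final 0.05% Triton X-100, 1% formaldehyde and 1 ug/ml Hoechst. Dosing was a single drug or a fixed anchor-drug dose plus five library-drug doses (not always all listed) in √10 steps, and values are medians of duplicate plates imaged at 4×.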

Linsitinib + AZD7762 = compound: C[C@]1(O)C[C@@H](c2nc(-c3ccc4ccc(-c5ccccc5)nc4c3)c3c(N)nccn32)C1 [Linsitinib] + NC(=O)Nc1cc(-c2cccc(F)c2)sc1C(=O)N[C@H]1CCCNC1 [AZD7762] (partner 0.2 µM)
In short: as §1

Linsitinib + Luminespib = compound: C[C@]1(O)C[C@@H](c2nc(-c3ccc4ccc(-c5ccccc5)nc4c3)c3c(N)nccn32)C1 [Linsitinib] + CCNC(=O)c1noc(-c2cc(C(C)C)c(O)cc2O)c1-c1ccc(CN2CCOCC2)cc1 [Luminespib] (partner 0.01 µM)
In short: as §1

Ispinesib + Dasatinib = compound: Cc1ccc(C(=O)N(CCCN)[C@@H](c2nc3cc(Cl)ccc3c(=O)n2Cc2ccccc2)C(C)C)cc1 [Ispinesib] + Cc1nc(Nc2ncc(C(=O)Nc3c(C)cccc3Cl)s2)cc(N2CCN(CCO)CC2)n1 [Dasatinib] (partner 0.075 µM)
In short: as §1

| Cell Line | relative viability (Ispinesib + Vorinostat; first compound 0.001 µM) | relative viability (Ispinesib + Vorinostat; first compound 0.003162 µM) | relative viability (Ispinesib + Vorinostat; first compound 0.01 µM) | relative viability (Ispinesib + Vorinostat; first compound 0.03162 µM) | relative viability (Ispinesib + Vorinostat; first compound 0.1 µM) | relative viability (Linsitinib + AZD7762; first compound 0.01 µM) | relative viability (Linsitinib + AZD7762; first compound 0.03162 µM) | relative viability (Linsitinib + AZD7762; first compound 0.1 µM) | relative viability (Linsitinib + AZD7762; first compound 0.3162 µM) | relative viability (Linsitinib + AZD7762; first compound 1 µM) | relative viability (Linsitinib + Luminespib; first compound 0.01 µM) | relative viability (Linsitinib + Luminespib; first compound 0.03162 µM) | relative viability (Linsitinib + Luminespib; first compound 0.1 µM) | relative viability (Linsitinib + Luminespib; first compound 0.3162 µM) | relative viability (Linsitinib + Luminespib; first compound 1 µM) | relative viability (Ispinesib + Dasatinib; first compound 0.001 µM) | relative viability (Ispinesib + Dasatinib; first compound 0.003162 µM) | relative viability (Ispinesib + Dasatinib; first compound 0.01 µM) | relative viability (Ispinesib + Dasatinib; first compound 0.03162 µM) | relative viability (Ispinesib + Dasatinib; first compound 0.1 µM) |
| --- | --- | --- | --- | --- | --- | --- | --- | --- | --- | --- | --- | --- | --- | --- | --- | --- | --- | --- | --- | --- |
| NCI-H596 | 0.58 | 0.741 | 0.642 | 0.609 | 0.35 | 1.19 | 1.06 | 1 | 1.14 | 0.92 | 1.16 | 0.991 | 1.2 | 0.862 | 0.867 | 0.573 | 0.589 | 0.62 | 0.641 | 0.334 |
| RERF-LC-KJ | 0.585 | 0.679 | 0.553 | 0.39 | 0.397 | 0.254 | 1.02 | 0.905 | 0.419 | 0.71 | 1.12 | 1.15 | 1.42 | 1.13 | 1.1 | 0.835 | 0.697 | 0.448 | 0.281 | 0.391 |
| NCI-H647 | 0.637 | 0.57 | 0.497 | 0.333 | 0.141 | 0.467 | 0.504 | 0.493 | 0.212 | 0.331 | 0.169 | 0.117 | 0.524 |  | 0.184 | 0.176 | 0.173 | 0.122 | 0.0516 | 0.0877 |
| NCI-H1734 | 0.854 | 0.904 | 0.91 | 0.552 | 0.262 | 0.61 | 0.534 | 0.579 | 0.794 | 0.363 | 0.204 | 0.206 | 0.198 | 0.154 | 0.178 | 0.428 | 0.53 | 0.53 | 0.337 | 0.187 |
| NCI-H1395 | 0.754 | 0.871 | 0.385 | 0.386 | 0.421 | 0.373 |  | 0.394 | 0.477 | 0.38 | 0.672 | 0.585 | 0.616 | 0.63 | 0.732 | 0.432 | 0.419 | 0.713 | 0.354 | 0.333 |
| EMC-BAC-2 | 0.539 | 0.745 | 0.419 | 0.147 | 0.365 | 1.12 | 1.07 | 1.1 | 0.775 | 0.553 | 1.07 | 1.2 | 1.26 | 1.01 | 0.95 | 0.354 | 0.236 | 0.351 | 0.257 | 0.19 |
| NCI-H1355 | 0.673 | 0.675 | 0.758 | 0.458 | 0.286 | 0.66 | 0.604 | 0.633 | 0.602 | 0.329 | 0.761 | 0.685 | 0.618 | 0.616 | 0.587 | 0.82 | 0.836 | 0.625 | 0.379 | 0.423 |
| NCI-H1944 | 0.671 | 0.496 | 0.575 | 0.345 | 0.152 | 0.469 | 0.455 | 0.547 | 0.478 | 0.266 | 0.755 | 0.793 | 0.727 | 0.637 | 0.532 | 0.214 | 0.266 | 0.211 | 0.184 | 0.104 |
| ABC-1 | 1.14 | 1.3 | 1.05 |  | 0.548 |  |  | 0.765 | 0.861 | 0.602 | 0.544 | 0.392 | 0.604 | 0.519 | 0.312 | 0.569 | 0.803 | 0.523 | 0.294 | 0.288 |
| HOP-62 | 0.685 | 0.631 | 0.949 | 0.667 | 0.25 | 0.583 | 0.577 | 0.769 |  | 0.298 | 0.939 | 0.964 | 0.923 |  | 0.694 | 0.815 | 0.824 | 0.837 | 0.534 | 0.251 |
